Laboratory results from article PMC8623047, “Novel Antioxidants and α-Glycosidase and Protein Tyrosine Phosphatase 1B Inhibitors from an Endophytic Fungus Penicillium brefeldianum F4a” (Journal of Fungi, 2021).

Target: T1, PTP1B (Homo sapiens, UniProt P18031)
T1 sequence (P18031 1-435): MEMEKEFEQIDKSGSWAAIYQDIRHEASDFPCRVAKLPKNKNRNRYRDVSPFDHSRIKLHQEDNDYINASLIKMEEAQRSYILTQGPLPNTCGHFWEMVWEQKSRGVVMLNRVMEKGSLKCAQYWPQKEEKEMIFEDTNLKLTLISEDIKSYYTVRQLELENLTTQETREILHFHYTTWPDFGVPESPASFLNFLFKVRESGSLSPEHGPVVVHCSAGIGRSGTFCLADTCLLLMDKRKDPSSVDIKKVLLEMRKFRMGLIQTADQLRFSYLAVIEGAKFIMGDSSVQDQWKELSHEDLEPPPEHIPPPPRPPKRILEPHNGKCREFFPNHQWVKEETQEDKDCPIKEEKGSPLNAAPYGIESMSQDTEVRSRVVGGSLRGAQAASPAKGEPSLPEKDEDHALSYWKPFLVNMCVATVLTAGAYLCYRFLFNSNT
Assay: PTP1B inhibitory assay (p-NPP substrate)
Format: biochemical
Details: mean ± SD, n = 3; sample concentration achieving 50% of activity
Experimental: The PTP1B inhibitory activity was established according to the previously reported methods. The reagent para-nitrophenyl phosphate (p-NPP) was used as a substrate for PTP1B. Then, 81 μL enzyme in buffer (pH 7.5), including EDTA (1 mM), Tris-HCl (25 mM), dithiothreitol (DTT) (1 mM), β-mercaptoethanol (2 mM), and 10 μL of sample at various concentrations in DMSO (the blank control used 10 μL of DMSO instead of the sample), was incubated in 96-well plates at 37 °C for 10 min. Then, 4 μL p-NPP (10 mM) in buffer was added and incubated at 37 °C for 30 min. Next, 5 μL of 2 M NaOH solution was added to terminate the reaction. Then, the absorbance was determined at 405 nm wavelength.

COc1cc(O)cc(C)c1Cc1oc(C[C@@H](C)O)cc1C(=O)O [Compound 1, peniorcinol A] and COc1cc(O)cc(C)c1Cc1oc(C)cc1C(=O)O [Compound 2, peniorcinol B] cannot be ordered by EC50: greater than 50 µM for the first, greater than 50 µM for the second.

C[C@]1(O)Cc2oc3cc(O)c(O)cc3c(=O)c2CO1 [Compound 5, penialidin F] and C[C@]1(O)Cc2oc3c(C(=O)O)c(O)c(O)cc3c(=O)c2CO1 [Compound 4, penialidin A] cannot be ordered by EC50: greater than 50 µM for the first, greater than 50 µM for the second.

COc1cc(O)cc(C)c1CC(=O)O [Compound 9, 2-(4-hydroxy-2-methoxy-6-methylphenyl) acetic acid] and C=C1C=CC(=O)[C@]1(CO)Cc1c(C)cc(O)cc1OC [Compound 3, peniorcinol C] cannot be ordered by EC50: greater than 50 µM for the first, greater than 50 µM for the second.

First: O=C(O)Cc1c[nH]c2ccccc12 [Compound 8, indole-3-acetic acid]
Second: CC1=Cc2oc3cc(O)c(O)cc3c(=O)c2CO1 [Compound 6, myxotrichin C]
The EC50 of the first is lower: 11.7 ± 1.03 µM for the first, greater than 50 µM for the second.

Cc1cc2nc3c(=O)[nH]c(=O)nc-3n(C[C@H](O)[C@H](O)[C@H](O)CO)c2cc1C [Compound 7, riboflavin] showed an EC50 of 8.87 ± 0.91 µM.

Test system: not listed separately
Assay: ABTS radical scavenging assay
Details: mean ± SD, n = 3; 6 min, 734 nm
Experimental: The ABTS free radical scavenging assay was tested according to the previously reported methods. […] The mixture was incubated in darkness at room temperature for 12 h before use. […] Then, 100 μL of the sample at various concentrations in ethanol (the blank control used 100 μL of ethanol instead of the sample) was added to 3.0 mL of diluted ABTS^•+ solution and mixed vigorously. […] L-Ascorbic acid was used as the positive control.

In order of falling EC50:
1. C=C1C=CC(=O)[C@]1(CO)Cc1c(C)cc(O)cc1OC [Compound 3, peniorcinol C]  32.7 ± 3.86 µM
2. COc1cc(O)cc(C)c1CC(=O)O [Compound 9, 2-(4-hydroxy-2-methoxy-6-methylphenyl) acetic acid]  30 ± 4.17 µM
3. COc1cc(O)cc(C)c1Cc1oc(C)cc1C(=O)O [Compound 2, peniorcinol B]  28.2 ± 2.87 µM
4. COc1cc(O)cc(C)c1Cc1oc(C[C@@H](C)O)cc1C(=O)O [Compound 1, peniorcinol A]  21.9 ± 1.06 µM
5. O=C1O[C@H]([C@@H](O)CO)C(O)=C1O [L-Ascorbic acid, reference compound]  18.8 ± 3.39 µM
6. CC1=Cc2oc3cc(O)c(O)cc3c(=O)c2CO1 [Compound 6, myxotrichin C]  15 ± 2.57 µM
7. C[C@]1(O)Cc2oc3c(C(=O)O)c(O)c(O)cc3c(=O)c2CO1 [Compound 4, penialidin A]  14.5 ± 0.46 µM
8. C[C@]1(O)Cc2oc3cc(O)c(O)cc3c(=O)c2CO1 [Compound 5, penialidin F]  7.61 ± 0.46 µM

Test system: not given
Assay: not given
Details: previous studies; cited from earlier work

In the case of C[C@]1(O)Cc2oc3c(C(=O)O)c(O)c(O)cc3c(=O)c2CO1 [Compound 4, penialidin A], the “DPPH• scavenging activity IC50” value is given as 156.38 µg/mL.

Test system: not listed separately
Assay: DPPH radical scavenging assay
Details: mean ± SD, n = 3; 30 min, 517 nm
Experimental: The DPPH free radicals scavenging assay was tested according to the previously reported methods. First, 100 μL of sample at different concentrations in ethanol (the blank control used 100 μL of ethanol instead of the sample) was added to 96 wells, followed by 100 μL of 0.15 mM DPPH. […] L-Ascorbic acid was used as the positive control.

COc1cc(O)cc(C)c1Cc1oc(C[C@@H](C)O)cc1C(=O)O [Compound 1, peniorcinol A] and COc1cc(O)cc(C)c1Cc1oc(C)cc1C(=O)O [Compound 2, peniorcinol B] cannot be ordered by EC50: greater than 100 µM for the first, greater than 100 µM for the second.

Compared with C[C@]1(O)Cc2oc3cc(O)c(O)cc3c(=O)c2CO1 [Compound 5, penialidin F], C[C@]1(O)Cc2oc3c(C(=O)O)c(O)c(O)cc3c(=O)c2CO1 [Compound 4, penialidin A] is higher in EC50: 28.4 ± 3.16 µM for the first, greater than 100 µM for the second.

COc1cc(O)cc(C)c1CC(=O)O [Compound 9, 2-(4-hydroxy-2-methoxy-6-methylphenyl) acetic acid] and C=C1C=CC(=O)[C@]1(CO)Cc1c(C)cc(O)cc1OC [Compound 3, peniorcinol C] cannot be ordered by EC50: greater than 100 µM for the first, greater than 100 µM for the second.

Compared with CC1=Cc2oc3cc(O)c(O)cc3c(=O)c2CO1 [Compound 6, myxotrichin C], O=C1O[C@H]([C@@H](O)CO)C(O)=C1O [L-Ascorbic acid, reference compound] is 4.9-fold lower in EC50: 30.1 ± 2.83 µM for the first, 6.12 ± 0.17 µM for the second. The second is the more potent here.
